Experimental data from patent publication US9540397B2, “BACE1 inhibitors” (Hoffmann-La Roche Inc., priority 2014, dated 2017).
pIC50: −log10 of the molar value.

Experiments:
BACE1 = target: T1, BACE1 (Homo sapiens, UniProt P56817); assay: Cellular Aβ-lowering assay (Abeta 40 AlphaLISA, HEK293 APP cells); assay type: cell-based; details: 18-20 hrs incubation, Aβ40 in culture supernatant, read-out: BACE1 cell act. Aβ40 IC50
T1 construct: endogenous in cells; host or cells: HEK293 APP cells
Method in brief: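 APP-expressing HEK293 cells exposed to compounds for 18-20 h at 37° C. (1% DMSO final). Secreted Aβ1-40 in supernatant measured by AlphaLISA (615 nm emission), expressed as percent of DMSO-only signal, and IC50 fitted.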

[1] = test system: Aβ40 in brain of wild-type mice; assay: Lowering of Aβ40 in brain of wild-type mice; assay type: in vivo; details: Mus musculus, po; female C57Bl/6J mice, 30 mg/kg per os, 4 h; brain Aβ40 related to the value in the vehicle group; read-out: Aβ40 (wt mice, brain)
Procedure: Lowering of Aβ40 in Brain of Wild-Type Mice:
Animals and Housing Conditions.
Animals were maintained in a 12/12 h light/dark cycle, with lights starting at 6 a.m., and experiments were conducted during the light phase. Animal housing and experimental procedures were in line with ethical and legal guidelines and were authorized by local veterinary authorities.
Experiment. Female C57Bl/6J mice were treated with a dose of 30 mg/kg of the compounds, 3-4 animals per treatment group. The test compound was dissolved in 5% EtOH, 10% Solutol, and was applied per os at 10 mL/kg. After 4 h, the animals were sacrificed and brain and plasma were collected. The brain was cut into halves and immediately frozen on dry ice. Brain was used for measurement of Aβ40 and plasma was used for determination of compound exposure. […] Brain tissue was homogenized in 2% DEA buffer in a Roche MagnaLyser (20″, 4000 rpm) and subsequently centrifuged for 1 h at 100000 g. DEA was reduced to 0.2% in 50 mM NaCl and one-half of the DEA lysate was passed over an Oasis Solid phase extraction plate (Waters; cat. no. 186000679), which had been activated with MeOH and equilibrated in dH2O (1 mL each). After washes in 10% and 30% MeOH (1 mL each), the Aβ-peptides were eluted in 0.8 mL of 2% NH4OH in 90% MeOH. The eluate was dried over a N2 flow, and the dried sample was reconstituted in 30 μL of AlphaLISA assay buffer. Aβ40 was determined by an AlphaLISA assay (Perkin-Elmer). In a white 96-well, half area microplate (Perkin-Elmer cat. no. 6005561), 20 μL of the reconstituted sample were mixed with 5 μL of biotinylated BAP-24 (specific for C-terminus of Aβ40) (Brockhaus, M.; Grunberg, J.; Rohrig, S.; Loetscher, H.; Wittenburg, N.; Baumeister, R.; Jacobsen, H.; Haass, C. Caspasemediated cleavage is not required for the activity of presenilins in amyloidogenesis and NOTCH signaling. NeuroReport 1998, 9, 1481-1486.) stock=4.4 mg/mL, f.c.5.5 μg/mL), and 5 μL 252Q6 acceptor beads (252Q6 antibody, Invitrogen AMB0062) had been previously conjugated with AlphaLISA Acceptor beads (Perkin-Elmer cat. no. 6772002); final dilution 1:500). The mix was incubated for 1 h at RT in the dark. Then 20 μL of Streptavin-coated Donor Beads (Perkin-Elmer cat. no. 6760002, final dilution 1:125) were added and this final mix was incubated in the dark for another 30 min at RT before RFU was measured in an AlphaScreen Reader (Perkin-Elmer Envision 2104). The value obtained for Aβ40 in the treated animals was related to the value in the vehicle group and is given in %. Alternatively a commercial ELISA was used for Aβ40 determination (Wako ELISA: (“Human/Rat β Amyloid (40) ELISA kit Wako II”; cat nr. 294-64701) following the manufacture's instruction. Also here the Aβ-lowering efficacy was calculated as percentage of the vehicle group.

T1 sequence (P56817 46-501): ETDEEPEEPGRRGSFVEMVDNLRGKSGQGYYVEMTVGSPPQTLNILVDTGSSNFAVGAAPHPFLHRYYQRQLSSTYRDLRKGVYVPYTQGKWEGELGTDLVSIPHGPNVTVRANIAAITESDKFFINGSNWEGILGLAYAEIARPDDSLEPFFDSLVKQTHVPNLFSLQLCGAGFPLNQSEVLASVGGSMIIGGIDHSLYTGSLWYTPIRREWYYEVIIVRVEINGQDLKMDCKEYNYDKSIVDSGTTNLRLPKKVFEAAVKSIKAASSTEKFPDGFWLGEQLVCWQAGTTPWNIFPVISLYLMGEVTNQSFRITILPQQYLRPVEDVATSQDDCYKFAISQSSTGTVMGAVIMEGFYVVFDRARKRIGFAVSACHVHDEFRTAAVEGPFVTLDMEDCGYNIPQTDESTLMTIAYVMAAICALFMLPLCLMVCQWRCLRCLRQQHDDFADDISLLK

Row | Structure (SMILES) | pIC50 (BACE1) | response vs control in vivo at 30 mg/kg [1]
1 | CC1(C)C(N)=N[C@](C)(c2nc(NC(=O)c3ccc(OC(F)F)cn3)ccc2F)[C@H]2CC(F)(F)CN=[S@@]21=O [Example 35AA, N-(6-((4aR,5R,9R)-7-amino-3,3-difluoro-5,8,8-trimethyl-9-oxido-2,3,4,4a,5,8-hexahydro-[1,4]thiazino[2,1-f][1,2]thiazin-5-yl)-5-fluoropyridin-2-yl)-5-(difluoromethoxy)picolinamide] | 7.06 | 101%
2 | CC1(C)C(N)=N[C@](C)(c2nc(NC(=O)c3ccc(OCC(F)(F)C(F)F)cn3)ccc2F)[C@H]2CC(F)(F)CN=[S@@]21=O [Example 36AA, N-(6-((4aR,5R,9R)-7-amino-3,3-difluoro-5,8,8-trimethyl-9-oxido-2,3,4,4a,5,8-hexahydro-[1,4]thiazino[2,1-f][1,2]thiazin-5-yl)-5-fluoropyridin-2-yl)-5-(2,2,3,3-tetrafluoropropoxy)-picolinamide] | 6.38 | 84%
3 | CC1(C)C(N)=N[C@](C)(c2nc(NC(=O)c3ncc(C#N)cc3Cl)ccc2F)[C@H]2CC(F)(F)CN=[S@@]21=O [Example 37AA, N-(6-((4aR,5R,9R)-7-amino-3,3-difluoro-5,8,8-trimethyl-9-oxido-2,3,4,4a,5,8-hexahydro-[1,4]thiazino[2,1-f][1,2]thiazin-5-yl)-5-fluoropyridin-2-yl)-3-chloro-5-cyanopicolinamide] | 8.80 | 73%
4 | CC1(C)C(N)=N[C@](C)(c2nc(NC(=O)c3ncc(Cl)cc3Cl)ccc2F)[C@H]2CC(F)(F)CN=[S@@]21=O [Example 40AA, N-(6-((4aR,5R,9R)-7-amino-3,3-difluoro-5,8,8-trimethyl-9-oxido-2,3,4,4a,5,8-hexahydro-[1,4]thiazino[2,1-f][1,2]thiazin-5-yl)-5-fluoropyridin-2-yl)-3,5-dichloropicolinamide] | 8.31 | 77%
5 | CC1(C)C(N)=N[C@](C)(c2nc(NC(=O)c3ncc(F)cc3Cl)ccc2F)[C@H]2CC(F)(F)CN=[S@@]21=O [Example 41AA, N-(6-((4aR,5R,9R)-7-amino-3,3-difluoro-5,8,8-trimethyl-9-oxido-2,3,4,4a,5,8-hexahydro-[1,4]thiazino[2,1-f][1,2]thiazin-5-yl)-5-fluoropyridin-2-yl)-3-chloro-5-fluoropicolinamide] | 7.52 | 78%
6 | Cc1cc(Cl)cnc1C(=O)Nc1ccc(F)c([C@@]2(C)N=C(N)C(C)(C)[S@@]3(=O)=NCC(F)(F)C[C@H]23)n1 [Example 42AA, N-(6-((4aR,5R,9R)-7-amino-3,3-difluoro-5,8,8-trimethyl-9-oxido-2,3,4,4a,5,8-hexahydro-[1,4]thiazino[2,1-f][1,2]thiazin-5-yl)-5-fluoropyridin-2-yl)-5-chloro-3-methylpicolinamide] | 7.71 | 85%
7 | CC1(C)C(N)=N[C@](C)(c2nc(NC(=O)c3ccc(Cl)cn3)ccc2F)[C@H]2CC(F)(F)CN=[S@@]21=O [Example 43AA, N-(6-((4aR,5R,9R)-7-amino-3,3-difluoro-5,8,8-trimethyl-9-oxido-2,3,4,4a,5,8-hexahydro-[1,4]thiazino[2,1-f][1,2]thiazin-5-yl)-5-fluoropyridin-2-yl)-5-chloropicolinamide] | 7.25 | 80%
8 | CC1(C)C(N)=N[C@](C)(c2nc(NC(=O)c3ncc(OC(F)F)cc3Cl)ccc2F)[C@H]2CC(F)(F)CN=[S@@]21=O [Example 45AA, N-(6-((4aR,5R,9R)-7-amino-3,3-difluoro-5,8,8-trimethyl-9-oxido-2,3,4,4a,5,8-hexahydro-[1,4]thiazino[2,1-f][1,2]thiazin-5-yl)-5-fluoropyridin-2-yl)-3-chloro-5-(difluoromethoxy)-picolinamide] | 7.58 | 85%
9 | Cc1cc(C#N)cnc1C(=O)Nc1ccc(F)c([C@@]2(C)N=C(N)C(C)(C)[S@@]3(=O)=NCC4(CC4)C[C@H]23)n1 [Example 48AA, N-(6-((4aR,5R,9R)-7-amino-5,8,8-trimethyl-9-oxido-4,4a,5,8-tetrahydro-2H-spiro[[1,4]thiazino[2,1-f][1,2]thiazine-3,1′-cyclopropan]-5-yl)-5-fluoropyridin-2-yl)-5-cyano-3-methylpicolinamide] | 9.52 | 61%
10 | CC1(C)C(N)=N[C@](C)(c2nc(NC(=O)c3ncc(C#N)cc3Cl)ccc2F)[C@H]2CC3(CC3)CN=[S@@]21=O [Example 49AA, N-(6-((4aR,5R,9R)-7-amino-5,8,8-trimethyl-9-oxido-4,4a,5,8-tetrahydro-2H-spiro[[1,4]-thiazino[2,1-f][1,2]thiazine-3,1′-cyclopropan]-5-yl)-5-fluoropyridin-2-yl)-3-chloro-5-cyanopicolinamide] | 10.00 | 106%
11 | CC1(C)C(N)=N[C@](C)(c2nc(NC(=O)c3ncc(OC(F)F)cc3Cl)ccc2F)[C@H]2CC3(CC3)CN=[S@@]21=O [Example 50AA, N-(6-((4aR,5R,9R)-7-amino-5,8,8-trimethyl-9-oxido-4,4a,5,8-tetrahydro-2H-spiro[[1,4]thiazino[2,1-f][1,2]thiazine-3,1′-cyclopropan]-5-yl)-5-fluoropyridin-2-yl)-3-chloro-5-(difluoromethoxy)picolinamide] | 7.80 | 117%
